Our source for the Activity values is ChEMBL document CHEMBL1138490, “Gamma-aminobutyric acid amides of nortriptyline and fluoxetine display improved pain suppressing activity” (2009).

For assay [1], the system named is Mus musculus. Briefly: Antinociceptive activity in BALB/c mouse assessed as paw withdrawal latency at 0.4 mg/kg, po after 2 to 4 hrs by hot plate method. More on the design: dose 0.4 mg/kg. Format: functional, organism-based.
Assay [2] relates to Mus musculus. As to the kind of experiment: Anxiolytic activity in BALB/c mouse assessed as immobility at equimolar oral dose relative to 5 mg/kg fluoxetine after 90 mins by open-field test (RVb= 458.4+/-41 s). Format: functional.
Assay [3] concerns Mus musculus. As to the kind of experiment: Antinociceptive activity in BALB/c mouse assessed as […] at 20 to 40 mg/kg, po equimolar dose of nortriptyline after 240 mins by hot plate method. In kind it is functional, organism-based. (In general: Thermal pain tests record how soon the animal reacts.)
For assay [4], the system named is Mus musculus. As to the kind of experiment: Anxiolytic activity in BALB/c mouse assessed as distance moved at equimolar oral dose relative to 20 mg/kg fluoxetine after 90 mins by open-field test (RVb= 8485+/-610 cm). In kind it is functional.
The test system of assay [5] is Mus musculus. Briefly: Antinociceptive activity in BALB/c mouse assessed as paw withdrawal latency at 0.4 mg/kg, po equimolar dose of nortriptyline after 2 to 4 hrs by hot plate method. Further details: dose 0.4 mg/kg. Format: functional, organism-based.
Assay [6] concerns Mus musculus. Briefly: Antinociceptive activity against formalin-induced neurogenic pain in BALB/c mouse assessed paw licking, biting or shaking during at 10 mg/kg, po administered 2 hrs before formalin challenge measured relative to control. Format: functional, organism-based. More on the design: dose 10 mg/kg.
In assay [7] the test system is Mus musculus. As to the kind of experiment: Antinociceptive activity against formalin-induced neurogenic pain in BALB/c mouse assessed paw licking, biting or shaking at to 30 mg/kg, po equimolar dose of fluoxetine administered 2 hrs before formalin challenge measured relative to control. Further details: dose 30 mg/kg. In kind it is functional, organism-based.
Assay [8] has as its system Mus musculus. Briefly: Antinociceptive activity against formalin-induced neurogenic pain in BALB/c mouse assessed paw licking, biting or shaking during at 10 mg/kg, po equimolar oral dose fluoxetine administered 2 hrs before formalin challenge measured relative to control. In kind it is functional, organism-based. Further details: dose 10 mg/kg.
Assay [9] has as its system Mus musculus. As to the kind of experiment: Anxiolytic activity in BALB/c mouse assessed as distance moved at equimolar oral dose relative to 10 mg/kg fluoxetine after 90 mins by open-field test (RVb= 8485+/-610 cm). Format: functional.
The subject of assay [10] is Mus musculus. Briefly: Anxiolytic activity in BALB/c mouse assessed as distance moved at equimolar oral dose relative to 5 mg/kg fluoxetine after 90 mins by open-field test (RVb= 8485+/-610 cm). In kind it is functional.
In assay [11] the test system is Mus musculus. Briefly: Antinociceptive activity in BALB/c mouse assessed as increase in paw withdrawal latency time at 10 mg/kg, po equimolar dose of fluoxetine daily measured after 3 to 5 hrs on day 1 to 11. Format: functional, organism-based. More on the design: dose 10 mg/kg.
Assay [12] has as its system Mus musculus. As to the kind of experiment: Anxiolytic activity in BALB/c mouse assessed as velocity at equimolar oral dose relative to 5 mg/kg fluoxetine after 90 mins by open-field test (RVb= 7.07+/-0.51 cm/s). In kind it is functional.
In assay [13] the test system is Mus musculus. As to the kind of experiment: Anxiolytic activity in BALB/c mouse assessed as immobility at equimolar oral dose relative to 20 mg/kg fluoxetine after 90 mins by open-field test (RVb= 458.4+/-41 s). In kind it is functional.
The subject of assay [14] is Mus musculus. As to the kind of experiment: Anxiolytic activity in BALB/c mouse assessed as velocity at equimolar oral dose relative to 10 mg/kg fluoxetine after 90 mins by open-field test (RVb= 7.07+/-0.51 cm/s). In kind it is functional.
Assay [15] deals with Mus musculus. As to the kind of experiment: Antinociceptive activity against formalin-induced neurogenic pain in BALB/c mouse assessed paw licking, biting or shaking at 30 mg/kg, po administered 2 hrs before formalin challenge measured relative to control. Format: functional, organism-based. More on the design: dose 30 mg/kg.
Assay [16] concerns Mus musculus. Briefly: Antinociceptive activity in BALB/c mouse assessed as […] at 10 mg/kg, po equimolar dose of nortriptyline after 240 mins by hot plate method. Format: functional, organism-based. More on the design: dose 10 mg/kg.
For assay [17], the system named is Mus musculus. Briefly: Anxiolytic activity in BALB/c mouse assessed as velocity at equimolar oral dose relative to 20 mg/kg fluoxetine after 90 mins by open-field test (RVb= 7.07+/-0.51 cm/s). Format: functional.
For assay [18], the system named is Mus musculus. As to the kind of experiment: Anxiolytic activity in BALB/c mouse assessed as immobility at equimolar oral dose relative to 10 mg/kg fluoxetine after 90 mins by open-field test (RVb= 458.4+/-41 s). Format: functional.
Assay [19] has as its system Mus musculus. Briefly: Antinociceptive activity in BALB/c mouse assessed as increase in paw withdrawal latency time at 10 mg/kg, po daily measured after 3 to 5 hrs on day 1 on day 1 to 11. Format: functional, organism-based. More on the design: dose 10 mg/kg.

The source made the active and inactive calls. The rule behind the calls is not given here.

For `CN(CCC(Oc1ccc(C(F)(F)F)cc1)c1ccccc1)C(=O)CCCN.Cl` (centres undefined), the outcome in the assay on Mus musculus [1], in the assay on Mus musculus [3], in the assay with Mus musculus [5], in the assay with Mus musculus [6], with Mus musculus [7] and with Mus musculus [8] was Active. Moreover, the result in the assay with Mus musculus [11], with Mus musculus [15], in the assay with Mus musculus [16] and in the assay with Mus musculus [19] was Active. Moreover, the Activity in the assay on Mus musculus [2] turned out to be 501.5 s; with Mus musculus [4], 6462 cm; in the assay with Mus musculus [9], 8003 cm; in the assay on Mus musculus [10] it was 7767 cm; in the assay with Mus musculus [12], 6.47 cm/s; with Mus musculus [13], 639.9 s. In addition, the Activity in the assay on Mus musculus [14] stood at 6.67 cm/s; in the assay with Mus musculus [17], 5.39 cm/s; in the assay with Mus musculus [18] it was 536.3 s.
